Data from EP0981349B1, “5-ALPHA-PREGNAN-3-BETA-OL-20-ONE SULFATE FOR THE TREATMENT OF TUMOURS AND CNS DISEASES” (Wyeth, priority 1997, dated 1998).
Counter-ions that a name gives are not always drawn.

Key:
[1] = target: T1, progesterone receptors (Homo sapiens, UniProt P06401); assay: Stimulation of alkaline phosphatase enzyme activity in T47D cells (progestational activity)
T1 sequence (P06401 1-933): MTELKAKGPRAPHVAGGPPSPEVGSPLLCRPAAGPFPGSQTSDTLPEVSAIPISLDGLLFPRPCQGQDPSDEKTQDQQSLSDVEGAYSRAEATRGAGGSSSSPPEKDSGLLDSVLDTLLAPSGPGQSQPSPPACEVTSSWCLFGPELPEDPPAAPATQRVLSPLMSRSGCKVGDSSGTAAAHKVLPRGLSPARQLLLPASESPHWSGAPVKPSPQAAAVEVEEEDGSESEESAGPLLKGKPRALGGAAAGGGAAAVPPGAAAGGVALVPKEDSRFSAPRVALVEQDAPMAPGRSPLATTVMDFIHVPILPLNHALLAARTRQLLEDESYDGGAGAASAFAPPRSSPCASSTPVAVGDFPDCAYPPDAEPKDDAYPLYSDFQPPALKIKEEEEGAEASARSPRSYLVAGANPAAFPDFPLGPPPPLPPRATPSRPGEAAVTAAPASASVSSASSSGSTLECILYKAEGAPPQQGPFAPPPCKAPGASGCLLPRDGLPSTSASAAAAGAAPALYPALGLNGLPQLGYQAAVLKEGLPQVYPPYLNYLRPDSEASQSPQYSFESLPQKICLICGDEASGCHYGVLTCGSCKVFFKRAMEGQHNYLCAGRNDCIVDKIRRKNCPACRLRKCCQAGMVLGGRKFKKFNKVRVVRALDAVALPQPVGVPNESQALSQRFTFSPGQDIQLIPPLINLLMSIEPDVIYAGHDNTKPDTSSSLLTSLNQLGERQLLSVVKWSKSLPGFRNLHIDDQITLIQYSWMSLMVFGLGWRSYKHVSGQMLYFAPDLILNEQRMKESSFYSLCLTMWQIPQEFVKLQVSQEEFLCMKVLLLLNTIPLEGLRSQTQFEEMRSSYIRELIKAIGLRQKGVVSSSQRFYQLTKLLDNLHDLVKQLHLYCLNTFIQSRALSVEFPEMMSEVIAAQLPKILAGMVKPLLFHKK
Procedure: The progestational activity of a representative compound of this invention (5α-pregnan-3β-ol-20-one 3-sulfate ester sodium salt) was evaluated in an in vitro standard pharmacological test procedure.
In this test procedure, the progestational activity of a compound is quantified based on its stimulation of alkaline phosphatase enzyme activity in T47D cells, a human breast cancer cell line which expresses high levels of progesterone receptors. This is a well established test procedure in which both the progestin receptors and the response stimulated by activated progestin receptors are endogenous to the cells. Cells are pre-conditioned in low serum medium for one day and then treated with test compounds. Alkaline phosphatase activity is measured 24 hr after treatment.

[2] = test system: potassium channel currents; assay: Whole cell recording of potassium currents from cultured hippocampal neurons; format: cell-based; conditions: 2 µM, p = 0.0006
Procedure: (§1) Briefly, the following procedure was used.
(§2) Whole cell recording techniques were used to record calcium and potassium currents from cultured hippocampal neurons. The compounds to be evaluated were made fresh each day in a 400 µM ethanol stock solution. The test compounds were diluted in saline to obtain a final concentration of 2 µM. The amplitude of calcium or potassium currents in control, test compound, and washout solutions was measured from at least 10 current traces for each condition. To compensate for rundown of the calcium current with time, control and washout currents were averaged. The current amplitude with drug was divided by the averaged control and washout current to determine the percent change. The means, standard deviations and errors for each test compound were calculated and significance from control was determined using the paired T-Test.

[3] = test system: calcium channel currents; assay: Whole cell recording of calcium currents from cultured hippocampal neurons; format: cell-based; conditions: 2 µM, p = 0.044
Procedure: as §1, §2

SMILES	EC50 [1] [µM]	increased potassium channel currents versus control [2] [%]	Calcium channel currents decrease versus control [3] [%]	fold induction of alkaline phosphatase ([1]; t47d cells, 24 h)
CC(=O)[C@H]1CC[C@H]2[C@@H]3CC[C@H]4C[C@@H](OS(=O)(=O)O)CC[C@]4(C)[C@H]3CC[C@]12C [5α-pregnan-3β-ol-20-one 3-sulfate ester sodium salt]	5	21.76 ± 2.40	4.64 ± 1.64	
CC(=O)O[C@]1(C(C)=O)CC[C@H]2[C@@H]3C[C@H](C)C4=CC(=O)CC[C@]4(C)[C@H]3CC[C@@]21C [medroxyprogesterone acetate, reference compound]				30 - 60 fold
